Test results published in ChEMBL document CHEMBL3407472, “Multi-parameter optimization of aza-follow-ups to BI 207524, a thumb pocket 1 HCV NS5B polymerase inhibitor. Part 2: Impact of lipophilicity on promiscuity and in vivo toxicity” (Bioorg Med Chem Lett, 2015).

Tests used:
Hepatitis C virus [1] = test: Antiviral activity against Hepatitis C virus genotype 1b infected in human Huh cells assessed as inhibition of viral replication by RT-PCR-based replicon assay; format: functional, cell-based, Hepacivirus hominis
Hepatitis C virus [2] = test: Antiviral activity against Hepatitis C virus genotype 1a infected in human Huh cells assessed as inhibition of viral replication by RT-PCR-based replicon assay; format: functional, cell-based, Hepacivirus hominis; conditions: subtype 1a
[3] = Half life in human liver microsomes at 2 uM; format: ADME
[4] = Permeability from apical to basolateral side of human Caco2 cells; format: ADME, cell-based; conditions: Caco-2, read-out: permeability
[5] = Lipophilicity, log D of the compound at pH 7.4; format: physicochemical; conditions: buffer
[6] = Half life in rat liver microsomes at 2 uM; format: ADME
[7] = Half life in cynomolgous monkey liver microsomes at 2 uM; format: ADME, Macaca fascicularis; conditions: cynomolgus monkey
[8] = Half life in dog liver microsomes at 2 uM; format: ADME, Canis lupus familiaris
[9] = Cmax in rat at 5 mg/kg, po and 2 mg/kg, iv; format: ADME, organism-based; conditions: in vivo
[10] = Cmax in cynomolgous monkey at 5 mg/kg, po and 2 mg/kg, iv; format: ADME, organism-based, Macaca fascicularis; conditions: cynomolgus monkey, in vivo
[11] = Cmax in dog at 5 mg/kg, po and 2 mg/kg, iv; format: ADME, organism-based, Canis lupus familiaris; conditions: in vivo
[12] = Half life in cynomolgous monkey at 5 mg/kg, po and 2 mg/kg, iv; format: ADME, organism-based, Macaca fascicularis; conditions: cynomolgus monkey, in vivo
[13] = Half life in rat at 5 mg/kg, po and 2 mg/kg, iv; format: ADME, organism-based; conditions: in vivo
[14] = AUC in rat at 5 mg/kg, po and 2 mg/kg, iv; format: ADME, organism-based; conditions: plasma
[15] = AUC in cynomolgous monkey at 5 mg/kg, po and 2 mg/kg, iv; format: ADME, organism-based, Macaca fascicularis; conditions: cynomolgus monkey, plasma
[16] = AUC in dog at 5 mg/kg, po and 2 mg/kg, iv; format: ADME, organism-based, Canis lupus familiaris; conditions: plasma
[17] = Half life in dog at 5 mg/kg, po and 2 mg/kg, iv; format: ADME, organism-based, Canis lupus familiaris; conditions: in vivo
[18] = Volume of distribution at steady state in rat at 5 mg/kg, po and 2 mg/kg, iv; format: ADME, organism-based; conditions: in vivo, read-out: Vdss
[19] = Volume of distribution at steady state in cynomolgous monkey at 5 mg/kg, po and 2 mg/kg, iv; format: ADME, organism-based, Macaca fascicularis; conditions: cynomolgus monkey, in vivo, read-out: Vdss
[20] = Volume of distribution at steady state in dog at 5 mg/kg, po and 2 mg/kg, iv; format: ADME, organism-based, Canis lupus familiaris; conditions: in vivo, read-out: Vdss
[21] = Clearance in rat at 5 mg/kg, po and 2 mg/kg, iv; format: ADME, organism-based; conditions: in vivo
[22] = Clearance in cynomolgous monkey at 5 mg/kg, po and 2 mg/kg, iv; format: ADME, organism-based, Macaca fascicularis; conditions: cynomolgus monkey, in vivo
[23] = Clearance in dog at 5 mg/kg, po and 2 mg/kg, iv; format: ADME, organism-based, Canis lupus familiaris; conditions: in vivo
[24] = Bioavailability in rat at 5 mg/kg, po and 2 mg/kg, iv; format: ADME, organism-based; conditions: in vivo
[25] = Bioavailability in cynomolgous monkey at 5 mg/kg, po and 2 mg/kg, iv; format: ADME, organism-based, Macaca fascicularis; conditions: cynomolgus monkey, in vivo
[26] = Bioavailability in dog at 5 mg/kg, po and 2 mg/kg, iv; format: ADME, organism-based, Canis lupus familiaris; conditions: in vivo
[27] = Ratio of drug uptake in liver to plasma of rat at 5 mg/kg, po and 2 mg/kg, iv after 6 to 8 hrs; format: ADME, organism-based
[28] = target: Voltage-gated inwardly rectifying potassium channel KCNH2 (Homo sapiens, UniProt Q12809); test: Inhibition of human ERG channel
[29] = Induction of action potential duration in guinea pig papillary muscle cells at 30 uM; format: functional, Cavia porcellus

Chain of Voltage-gated inwardly rectifying potassium channel KCNH2 (Q12809 whole entry): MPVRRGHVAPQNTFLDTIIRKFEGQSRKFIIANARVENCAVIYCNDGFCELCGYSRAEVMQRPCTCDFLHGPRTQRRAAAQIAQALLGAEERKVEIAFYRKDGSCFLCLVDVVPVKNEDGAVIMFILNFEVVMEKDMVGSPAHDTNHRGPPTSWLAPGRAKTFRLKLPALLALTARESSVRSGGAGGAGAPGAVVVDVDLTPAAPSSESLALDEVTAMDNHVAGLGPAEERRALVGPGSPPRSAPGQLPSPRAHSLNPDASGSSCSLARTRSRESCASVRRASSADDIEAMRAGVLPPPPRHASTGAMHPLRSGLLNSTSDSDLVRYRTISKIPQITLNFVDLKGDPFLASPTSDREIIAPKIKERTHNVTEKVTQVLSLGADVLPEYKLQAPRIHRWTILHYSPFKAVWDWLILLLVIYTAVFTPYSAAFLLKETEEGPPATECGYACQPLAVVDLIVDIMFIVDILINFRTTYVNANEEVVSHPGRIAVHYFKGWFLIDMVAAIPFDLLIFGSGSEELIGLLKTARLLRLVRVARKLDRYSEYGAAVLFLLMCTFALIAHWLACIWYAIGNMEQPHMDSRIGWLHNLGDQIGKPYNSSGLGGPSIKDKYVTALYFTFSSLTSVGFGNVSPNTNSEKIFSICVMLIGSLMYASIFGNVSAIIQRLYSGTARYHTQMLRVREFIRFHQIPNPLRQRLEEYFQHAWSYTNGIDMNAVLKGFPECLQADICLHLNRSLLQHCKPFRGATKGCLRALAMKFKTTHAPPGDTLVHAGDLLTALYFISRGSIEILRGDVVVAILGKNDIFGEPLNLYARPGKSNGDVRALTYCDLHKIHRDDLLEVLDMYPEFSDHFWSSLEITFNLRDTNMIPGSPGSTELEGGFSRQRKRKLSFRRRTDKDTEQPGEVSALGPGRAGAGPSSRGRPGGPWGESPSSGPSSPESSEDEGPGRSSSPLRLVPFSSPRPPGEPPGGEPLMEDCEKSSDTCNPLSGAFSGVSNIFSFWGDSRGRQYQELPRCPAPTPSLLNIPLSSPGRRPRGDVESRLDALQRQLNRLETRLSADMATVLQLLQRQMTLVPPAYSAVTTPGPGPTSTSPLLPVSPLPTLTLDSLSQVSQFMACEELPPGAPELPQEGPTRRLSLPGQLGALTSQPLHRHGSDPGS

SMILES: CCOc1nc(NC(=O)C2(NC(=O)c3ccc4c(c3)c(C)c(-c3ccc(F)cn3)n4C3CCCCC3)CCC2)ccc1/C=C/C(=O)O
- EC50 (Hepatitis C virus [1]): 9 nM
- EC50 (Hepatitis C virus [2]): 22 nM
- half-life at 2 µM [3]: 1.72 h
- Papp A→B [4]: 15 ×10⁻⁶ cm/s
- logD [5]: > 4.9
- half-life at 2 µM [6]: 0.683 h
- half-life at 2 µM [7]: 0.217 h
- half-life at 2 µM [8]: 2.2 h
- Cmax [9]: 4.5 µM
- Cmax [10]: 4.4 µM
- Cmax [11]: 5.9 µM
- half-life [12]: 2.4 h
- half-life [13]: 1.7 h
- AUC [14]: 11 µM·h
- AUC [15]: 14 µM·h
- AUC [16]: 26 µM·h
- half-life [17]: 3 h
- Vd [18]: 0.4 L/kg
- Vd [19]: 0.34 L/kg
- Vd [20]: 0.34 L/kg
- clearance [21]: 4.2 mL/min/kg
- clearance [22]: 4.1 mL/min/kg
- clearance [23]: 1.9 mL/min/kg
- bioavailability [24]: 36%
- bioavailability [25]: 45%
- bioavailability [26]: 42%
- Kp [27]: 4
- IC50 [28]: 1400 nM
- Activity [29]: 20%
